From PubChem BioAssay (NCI)
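Method: 48-hour compound exposure of cells in 96-well plates, five concentrations, linear interpolation of endpoints. TGI: concentration producing complete growth inhibition.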

How the values were obtained:
Test in all cases: DTP human tumour cell line panel, 48 h
[1] = test system: TK-10 renal
[2] = test system: SK-MEL-28 melanoma
[3] = test system: DU-145 prostate
[4] = test system: SNB-19 CNS
[5] = test system: 786-0 renal
[6] = test system: OVCAR-3 ovarian
[7] = test system: SR leukemia
[8] = test system: UACC-62 melanoma
[9] = test system: MOLT-4 leukemia
[10] = test system: HCT-116 colon
[11] = test system: SF-539 CNS
[12] = test system: OVCAR-5 ovarian
[13] = test system: SK-MEL-5 melanoma
[14] = test system: K-562 leukemia
[15] = test system: NCI-H522 lung
[16] = test system: CAKI-1 renal
[17] = test system: NCI-H23 lung
[18] = test system: BT-549 breast
[19] = test system: OVCAR-4 ovarian
[20] = test system: HCT-15 colon
[21] = test system: KM12 colon
[22] = test system: HCC-2998 colon
[23] = test system: PC-3 prostate
[24] = test system: MCF7 breast
[25] = test system: MDA-MB-435
[26] = test system: HOP-62 NSCLC
[27] = test system: RPMI-8226 leukemia
[28] = test system: RXF 393 renal
[29] = test system: SK-OV-3 ovarian
[30] = test system: UACC-257 melanoma
[31] = test system: M14 melanoma
[32] = test system: CCRF-CEM leukemia
[33] = test system: A498 renal
[34] = test system: SW-620 colon
[35] = test system: SNB-75 CNS
[36] = test system: SF-295 CNS
[37] = test system: A549 NSCLC
[38] = test system: UO-31 renal
[39] = test system: HL-60(TB) leukemia
[40] = test system: EKVX NSCLC
[41] = test system: OVCAR-8 ovarian
[42] = test system: HS 578T breast
[43] = test system: NCI-H460 lung
[44] = test system: MDA-N
[45] = test system: MALME-3M melanoma
[46] = test system: U251 CNS
[47] = test system: SK-MEL-2 melanoma
[48] = test system: T-47D breast
[49] = test system: IGROV1 ovarian
[50] = test system: NCI/ADR-RES ovarian
[51] = test system: COLO 205 colon
[52] = test system: ACHN renal
[53] = test system: HT29 colon
[54] = test system: SN12C renal
[55] = test system: HOP-92 NSCLC
[56] = test system: LOX IMVI melanoma
[57] = test system: NCI-H226 lung
[58] = test system: MDA-MB-231 breast
[59] = test system: SF-268 CNS

## Clc1cccc(NN=Nc2ccc(-c3nc4ccccc4s3)cc2)c1
[1]
  TGI: > 100 µM
[2]
  TGI: > 100 µM
[3]
  TGI: > 100 µM
[4]
  TGI: > 100 µM
[5]
  TGI: 51.4 µM
[6]
  TGI: > 100 µM
[7]
  TGI: 43 µM
[8]
  TGI: 51.8 µM
[9]
  TGI: 40.6 µM
[10]
  TGI: > 100 µM
[11]
  TGI: > 100 µM
[12]
  TGI: > 100 µM
[13]
  TGI: 74.9 µM
[14]
  TGI: 92.5 µM
[15]
  TGI: 66.2 µM
[16]
  TGI: > 100 µM
[17]
  TGI: 63.3 µM
[18]
  TGI: > 100 µM
[19]
  TGI: > 100 µM
[20]
  TGI: > 100 µM
[21]
  TGI: > 100 µM
[22]
  TGI: > 100 µM
[23]
  TGI: > 100 µM
[24]
  TGI: > 100 µM
[25]
  TGI: > 100 µM
[26]
  TGI: > 100 µM
[27]
  TGI: > 100 µM
[28]
  TGI: 82.8 µM
[29]
  TGI: > 100 µM
[30]
  TGI: > 100 µM
[31]
  TGI: > 100 µM
[32]
  TGI: 37.7 µM
[33]
  TGI: > 100 µM
[34]
  TGI: > 100 µM
[35]
  TGI: 66.1 µM
[36]
  TGI: > 100 µM
[37]
  TGI: > 100 µM
[38]
  TGI: > 100 µM
[39]
  TGI: 27.2 µM
[40]
  TGI: > 100 µM
[41]
  TGI: 45.9 µM
[42]
  TGI: > 100 µM
[43]
  TGI: > 100 µM
[44]
  TGI: 80.1 µM
[45]
  TGI: 88.2 µM
[46]
  TGI: > 100 µM
[47]
  TGI: 48.1 µM
[48]
  TGI: > 100 µM
[49]
  TGI: 54.5 µM
[50]
  TGI: 74.1 µM
[51]
  TGI: > 100 µM
[52]
  TGI: > 100 µM
[53]
  TGI: > 100 µM
[54]
  TGI: 62.2 µM
[55]
  TGI: 76.8 µM
[56]
  TGI: > 100 µM
[57]
  TGI: > 100 µM

## CC(=O)NC(C)(C)C1CCC(C)=C(c2ccccc2)C1 (stereo not given)
[1]
  TGI: > 100 µM
[2]
  TGI: > 100 µM
[3]
  TGI: > 100 µM
[4]
  TGI: > 100 µM
[5]
  TGI: > 100 µM
[6]
  TGI: > 100 µM
[7]
  TGI: > 100 µM
[8]
  TGI: > 100 µM
[9]
  TGI: > 100 µM
[10]
  TGI: > 100 µM
[11]
  TGI: > 100 µM
[12]
  TGI: > 100 µM
[13]
  TGI: > 100 µM
[14]
  TGI: > 100 µM
[15]
  TGI: > 100 µM
[17]
  TGI: > 100 µM
[18]
  TGI: > 100 µM
[19]
  TGI: > 100 µM
[20]
  TGI: > 100 µM
[21]
  TGI: > 100 µM
[22]
  TGI: > 100 µM
[23]
  TGI: > 100 µM
[24]
  TGI: > 100 µM
[25]
  TGI: > 100 µM
[26]
  TGI: > 100 µM
[29]
  TGI: > 100 µM
[30]
  TGI: > 100 µM
[31]
  TGI: > 100 µM
[32]
  TGI: > 100 µM
[34]
  TGI: > 100 µM
[35]
  TGI: > 100 µM
[36]
  TGI: > 100 µM
[37]
  TGI: > 100 µM
[38]
  TGI: > 100 µM
[39]
  TGI: > 100 µM
[40]
  TGI: > 100 µM
[41]
  TGI: > 100 µM
[43]
  TGI: > 100 µM
[44]
  TGI: > 100 µM
[46]
  TGI: > 100 µM
[48]
  TGI: > 100 µM
[49]
  TGI: > 100 µM
[58]
  TGI: > 100 µM
[59]
  TGI: > 100 µM
[51]
  TGI: > 100 µM
[53]
  TGI: > 100 µM
[54]
  TGI: > 100 µM
[55]
  TGI: 68.4 µM
[56]
  TGI: > 100 µM

## Cc1csc2c1-n1cccc1C2=O
[1]
  TGI: > 100 µM
[2]
  TGI: > 100 µM
[3]
  TGI: > 100 µM
[4]
  TGI: > 100 µM
[5]
  TGI: > 100 µM
[6]
  TGI: > 100 µM
[7]
  TGI: > 100 µM
[8]
  TGI: > 100 µM
[9]
  TGI: > 100 µM
[10]
  TGI: > 100 µM
[12]
  TGI: > 100 µM
[13]
  TGI: > 100 µM
[14]
  TGI: > 100 µM
[15]
  TGI: > 100 µM
[16]
  TGI: > 100 µM
[18]
  TGI: > 100 µM
[19]
  TGI: > 100 µM
[20]
  TGI: > 100 µM
[21]
  TGI: > 100 µM
[22]
  TGI: > 100 µM
[23]
  TGI: > 100 µM
[24]
  TGI: > 100 µM
[25]
  TGI: > 100 µM
[26]
  TGI: > 100 µM
[27]
  TGI: > 100 µM
[28]
  TGI: > 100 µM
[29]
  TGI: > 100 µM
[30]
  TGI: > 100 µM
[31]
  TGI: > 100 µM
[32]
  TGI: > 100 µM
[33]
  TGI: > 100 µM
[34]
  TGI: > 100 µM
[35]
  TGI: > 100 µM
[36]
  TGI: > 100 µM
[37]
  TGI: > 100 µM
[38]
  TGI: > 100 µM
[40]
  TGI: > 100 µM
[41]
  TGI: > 100 µM
[42]
  TGI: > 100 µM
[43]
  TGI: > 100 µM
[44]
  TGI: > 100 µM
[45]
  TGI: > 100 µM
[46]
  TGI: > 100 µM
[47]
  TGI: > 100 µM
[48]
  TGI: > 100 µM
[49]
  TGI: > 100 µM
[50]
  TGI: > 100 µM
[58]
  TGI: > 100 µM
[59]
  TGI: > 100 µM
[51]
  TGI: > 100 µM
[52]
  TGI: > 100 µM
[53]
  TGI: > 100 µM
[54]
  TGI: > 100 µM
[56]
  TGI: > 100 µM
[57]
  TGI: > 100 µM

## N=c1c2c(=S)n(-c3ccccc3)c(=S)n(-c3ccccc3)c2nc(SCCN2CCCC2)n1-c1ccccc1
[1]
  TGI: 3.03 µM
[2]
  TGI: > 38.7 µM
[3]
  TGI: 3.29 µM
[4]
  TGI: 31.6 µM
[5]
  TGI: 2 µM
[6]
  TGI: 3.38 µM
[8]
  TGI: 3.04 µM
[9]
  TGI: 3.35 µM
[10]
  TGI: 4.43 µM
[11]
  TGI: 9.71 µM
[12]
  TGI: 32.1 µM
[13]
  TGI: 12.1 µM
[14]
  TGI: 3.62 µM
[15]
  TGI: 3.71 µM
[16]
  TGI: 3.11 µM
[17]
  TGI: 9.2 µM
[18]
  TGI: 5.13 µM
[19]
  TGI: 7.58 µM
[20]
  TGI: 3.86 µM
[21]
  TGI: 11.6 µM
[22]
  TGI: 2.78 µM
[23]
  TGI: 3.3 µM
[25]
  TGI: 3.82 µM
[26]
  TGI: 12.4 µM
[28]
  TGI: 2.94 µM
[29]
  TGI: 25.3 µM
[30]
  TGI: 3.06 µM
[31]
  TGI: 3.44 µM
[32]
  TGI: 1.25 µM
[33]
  TGI: 23.5 µM
[35]
  TGI: 8.29 µM
[36]
  TGI: 32.9 µM
[37]
  TGI: 8.5 µM
[39]
  TGI: 0.88 µM
[40]
  TGI: 7.23 µM
[41]
  TGI: 4.2 µM
[42]
  TGI: > 100 µM
[43]
  TGI: 3.63 µM
[44]
  TGI: 4.36 µM
[45]
  TGI: 3.87 µM
[46]
  TGI: 8.36 µM
[47]
  TGI: 13.9 µM
[48]
  TGI: 8.44 µM
[49]
  TGI: 3.52 µM
[50]
  TGI: 42.1 µM
[58]
  TGI: 3.52 µM
[59]
  TGI: 5.69 µM
[51]
  TGI: 3.17 µM
[52]
  TGI: 3.26 µM
[53]
  TGI: 3.6 µM
[54]
  TGI: 3.46 µM
[55]
  TGI: 3.48 µM
[56]
  TGI: 3.46 µM
[57]
  TGI: 18.4 µM
